From patent publication EP2915814A2, “Crystalline salts of sitagliptin” (priority 2008, dated 2010)
Where a name gives a salt, the structure may show the parent alone. Marks after values point to notes of the source that are not given here.

What was measured:
[1] = Hygroscopicity studies (water content after storage at 43 %, 75 % and 93 % relative humidity); assay type: physicochemical; details: for change during the hygroscopicity studies: 43 %, 75 % and 93 % relative humidity, confirmed by DSC of samples kept at 93 % relative humidity for 2 weeks; for Initial water content: initial sample; for Hygroscopicity 2 weeks 43 % rh: 2 weeks at 43 % rh; for Hygroscopicity 2 weeks 43 % rh / Hygroscopicity 2 weeks 75 % rh / Hygroscopicity 2 weeks 93 % rh: % Equilibrium moisture content, ss = semi solid state of sample, β = solid first changed into liquid and solidified again; for Hygroscopicity 2 weeks 75 % rh: 2 weeks at 75 % rh; for Hygroscopicity 2 weeks 93 % rh: 2 weeks at 93 % rh
Description: The salts of the present invention and the free base were studied under three different humidity conditions (43 % relative humidity, 75 % relative humidity, and 93 % relative humidity).

[2] = Stability studies (storage at 60 °C in closed bottles or at 40 °C / 75 % RH in an open bottle; related substances by HPLC); details: for Related Substances 2 W 40°C/75 % RH open / Related Substances 2 W 60°C closed: 2 weeks, 20160 min; for Related Substances 4 w 40°C/75 % RH closed / Related Substances 4 w 40°C/75 % RH open / Related Substances 4 w 60°C Closed bottle: 4 weeks, 40320 min; for Related Substances 12 weeks 40°C/75 % RH closed bottle / Related Substances 12 weeks 40°C/75 % RH open bottle: 120960 min; for Initial Related Substances: before storage
[3] = closed bottle, two weeks at 60 °C
[4] = closed bottle, four weeks at 60 °C

Row | Structure (SMILES) | Related Substances 2 W 40°C/75 % RH open [2] [%] | Related Substances 2 W 60°C closed [2] [%] | Related Substances 4 w 40°C/75 % RH closed [2] [%] | Related Substances 4 w 40°C/75 % RH open [2] [%] | Related Substances 4 w 60°C Closed bottle ([2]; closed bottle) [%] | Related Substances 12 weeks 40°C/75 % RH closed bottle ([2]; closed bottle) [%] | Related Substances 12 weeks 40°C/75 % RH open bottle ([2]; open bottle) [%] | Initial Related Substances [2] [%] | Hygroscopicity 2 weeks 43 % rh [1] | Hygroscopicity 2 weeks 75 % rh [1] | Hygroscopicity 2 weeks 93 % rh [1] | Initial water content ([1]; before storage) [%] | further results
1 | N[C@@H](CC(=O)N1CCn2c(nnc2C(F)(F)F)C1)Cc1cc(F)c(F)cc1F [phosphate monohydrate, sitagliptin dihydrogenphosphate, reference compound] | – | – | – | – | – | – | – | – | – | – | – | – | change during the hygroscopicity studies [1]: did not show much change; stability (degradation, related substances by HPLC) [2, 3]: stable
2 | N[C@@H](CC(=O)N1CCn2c(nnc2C(F)(F)F)C1)Cc1cc(F)c(F)cc1F [Base, 7-[(3R)-3-amino-1-oxo-4-(2,4,5-trifluorophenyl)butyl)-5,6,7,8-tetrahydro-3-(trifluoromethyl)-1,2,4-triazolo[4,3-a]pyrazine, reference compound] | 0.27 | 0.37 | 0.46 | 0.39 | 0.46 | 0.52 | 0.39 | 0.36 | – | – | – | – | Hygroscopicity (water content) ([1]; 2 weeks 43 % rh): 0.19%; Hygroscopicity (water content) ([1]; 2 weeks 75 % rh): 0.22%; Hygroscopicity (water content) ([1]; 2 weeks 93 % rh): 0.3%; change during the hygroscopicity studies ([1]; listed as free base): did not show much change; Initial water content ([1]; before humidity storage): 0.19%; stability (degradation, related substances by HPLC) ([2]; closed bottle, four weeks at 60 °C, listed as free base): stable; stability (degradation, related substances by HPLC) ([2]; closed bottle, two weeks at 60 °C, listed as free base): stable; stability (degradation, related substances by HPLC) ([2]; open bottle, twelve weeks at 40 °C and 75 % RH, listed as free base): stable
3 | N[C@@H](CC(=O)N1CCn2c(nnc2C(F)(F)F)C1)Cc1cc(F)c(F)cc1F [B: HCl I, Sitagliptin Hydrochloride Form I] | 0.05 | 0.01 | 0.01 | 0.01 | 0.01 | 0.14 | 0.15 | 0.04 | – | – | – | – | Hygroscopicity (water content) ([1]; 2 weeks 43 % rh): 3.86%; Hygroscopicity (water content) ([1]; 2 weeks 75 % rh): 4.36%; Hygroscopicity (water content) ([1]; 2 weeks 93 % rh): 4.49%; Initial water content ([1]; before humidity storage): 1.4%; stability (degradation, related substances by HPLC) ([2]; closed bottle, four weeks at 60 °C, listed as HCl form I): stable; stability (degradation, related substances by HPLC) ([2]; closed bottle, two weeks at 60 °C, listed as HCl form I): stable; stability (degradation, related substances by HPLC) ([2]; open bottle, twelve weeks at 40 °C and 75 % RH, listed as HCl form I): stable
4 | N[C@@H](CC(=O)N1CCn2c(nnc2C(F)(F)F)C1)Cc1cc(F)c(F)cc1F [Q: HCl II] | 0.36 | 0.23 | 0.30 | 0.53 | 0.30 | 0.34 | 0.44 | 0.20 | – | – | – | – | –
5 | N[C@@H](CC(=O)N1CCn2c(nnc2C(F)(F)F)C1)Cc1cc(F)c(F)cc1F [H: Glycolate] | 0.24 | 1.81 | 0.49 | 0.61 | 4.06 | 1.09 | 0.99 | 0.05 | 2.24 ss % | β 4.81% | 24.85** % | 1.039 | –
6 | N[C@@H](CC(=O)N1CCn2c(nnc2C(F)(F)F)C1)Cc1cc(F)c(F)cc1F [N: Mesylate II] | 0.16 | 0.16 | 0.08 | 0.08 | 0.12 | 0.07 | 0.11 | 0.11 | 2.89% | 3.37% | 4.04% | 2.08 | –
7 | N[C@@H](CC(=O)N1CCn2c(nnc2C(F)(F)F)C1)Cc1cc(F)c(F)cc1F [maleate, sitagliptin maleate] | – | – | – | – | – | – | – | – | – | – | – | – | change during the hygroscopicity studies [1]: did not show much change; stability (degradation, related substances by HPLC) [2, 4]: showed a degradation
8 | N[C@@H](CC(=O)N1CCn2c(nnc2C(F)(F)F)C1)Cc1cc(F)c(F)cc1F [Q : HCl II] | – | – | – | – | – | – | – | – | 0.32% | 0.44% | 0.83% | 0.27 | –
9 | N[C@@H](CC(=O)N1CCn2c(nnc2C(F)(F)F)C1)Cc1cc(F)c(F)cc1F [A: Phosphate, Sitagliptin Phosphate] | 0.21 | 0.50 | 0.31 | 0.16 | 0.38 | 0.57 | 0.37 | 0.39 | – | – | – | – | Hygroscopicity (water content) ([1]; 2 weeks 43 % rh): 0.41%; Hygroscopicity (water content) ([1]; 2 weeks 75 % rh): 0.48%; Hygroscopicity (water content) ([1]; 2 weeks 93 % rh): 0.82%; change during the hygroscopicity studies [1]: did not show much change; Initial water content ([1]; before humidity storage): 0.46%; stability (degradation, related substances by HPLC) [2, 4]: stable; stability (degradation, related substances by HPLC) [2, 3]: stable; stability (degradation, related substances by HPLC) ([2]; open bottle, twelve weeks at 40 °C and 75 % RH): stable
10 | N[C@@H](CC(=O)N1CCn2c(nnc2C(F)(F)F)C1)Cc1cc(F)c(F)cc1F [E: Sulfate I, Sitagliptin Sulfate Form I] | 0.10 | 0.08 | 0.02 | 0.06 | 0.02 | 0.03 | 0.08 | 0.08 | – | – | – | – | Hygroscopicity (water content) ([1]; 2 weeks 43 % rh): 1.12%; Hygroscopicity (water content) ([1]; 2 weeks 75 % rh): 1.0%; Hygroscopicity (water content) ([1]; 2 weeks 93 % rh): 2.81%; Initial water content ([1]; before humidity storage): 0.69%; stability (degradation, related substances by HPLC) ([2]; closed bottle, four weeks at 60 °C, listed as sulfate (solvated)): stable; stability (degradation, related substances by HPLC) ([2]; closed bottle, two weeks at 60 °C, listed as sulfate (solvated)): stable
11 | N[C@@H](CC(=O)N1CCn2c(nnc2C(F)(F)F)C1)Cc1cc(F)c(F)cc1F [M: Phosphate H2O] | 0.10 | 0.12 | 0.08 | 0.09 | 0.06 | 0.09 | 0.12 | 0.08 | – | – | – | – | –
12 | N[C@@H](CC(=O)N1CCn2c(nnc2C(F)(F)F)C1)Cc1cc(F)c(F)cc1F [J: Mesylate II] | – | – | – | – | – | – | – | – | 2.58% | 2.94% | 3.23% | 1.47 | –
13 | N[C@@H](CC(=O)N1CCn2c(nnc2C(F)(F)F)C1)Cc1cc(F)c(F)cc1F [maleate (solvated), Sitagliptin Maleate Form I] | – | – | – | – | – | – | – | – | – | – | – | – | stability (degradation, related substances by HPLC) [2, 3]: degradation was observed
14 | N[C@@H](CC(=O)N1CCn2c(nnc2C(F)(F)F)C1)Cc1cc(F)c(F)cc1F [maleate (non solvated), Sitagliptin Maleate Form II] | – | – | – | – | – | – | – | – | – | – | – | – | stability (degradation, related substances by HPLC) [2, 3]: stable
15 | N[C@@H](CC(=O)N1CCn2c(nnc2C(F)(F)F)C1)Cc1cc(F)c(F)cc1F [K: Mesylate I] | – | – | – | – | – | – | – | – | 1.13% | 0.49% | 0.96% | 0.68 | –
